# Measurements reported in patent US6370478B1, “Methods for drug interaction prediction using biological response profiles” (Rosetta Inpharmatics, Inc., priority 1998, dated 2002).
# Key:
# [1] = system: Yeast (Saccharomyces cerevisiae, Strain YPH499) mRNA transcripts; experiment: Yeast mRNA response profiles measured with DNA microarrays (transcript measurement); assay type: cell-based
# Protocol: Experimental methods were described in Marton et al., 1998, Drug Target Validation And Identification of Secondary Drug Target Effects Using DNA Microarrays, NATURE-MEDICINE 4:1293-301, incorporated herein by reference for all purposes. Dose response curves are plotted only for about 50 genes with the largest responses. […] In this case, any concentration near or above about 1 μg/ml would be informative, and the choice could be refined based on knowledge of the significance of the set of genes that responds at the higher concentrations.
# The following experimental methods were used for all the examples. Specific experimental design is described by the examples and their accompanying figures. The specific protocol was also described in Marton et al., 1998, Drug Target Validation And Identification of Secondary Drug Target Effects Using DNA Microarrays, NATURE-MEDICINE 4:1293-301.
# Yeast (Saccharomyces cerevisiae, Strain YPH499, see, Sikorski and Hieter, 1989, A system of shuttle vectors and yeast host strains designated for efficient manipulation of DNA in Saccharomyces cerevisiae, Genetics 122:19-27) cells were grown in YAPD at 30° C. to an OD600 of 1.0 (±0.2), and total RNA prepared by breaking cells in phenol/chloroform and 0.1 % SDS by standard procedures (Ausubel et al., 1995, Current Protocols in Molecular Biology, Greene Publishing and Wiley-Interscience, New York, Ch. 13). Poly(A)^+ RNA was selected by affinity chromatography on oligo-dT cellulose (New England Biolabs) essentially as described in Sambrook et al. (Molecular Cloning—A Laboratory Manual (2nd Ed.), Vol. 1, Cold Spring Harbor Laboratory, Cold Spring Harbor, N.Y., 1989). […]
# Fluorescently-labeled cDNAs (2-6 μg) are resuspended in 4×SSC plus 1 μg/μl tRNA as carrier and filtered using […] filters (Millipore, Bedford, Mass.). […] Microarrays were scanned with a fluorescence laser-scanning device as previously described (Schena et al., 1995, Science 270:467-470; Schena et al., 1995, Proc. Natl. Acad. Sci. USA 93:[…]) and the results (including the positions of perturbations) are recorded.
# [2] = system: wild type yeast cells; details: 10 micrograms/ml; Gari et al., 1997; cited from earlier work
smiles,measurement,setting,value
Clc1ccccc1C(c1ccccc1)(c1ccccc1)n1ccnc1 [Clotrimazole],relationship of the response profiles of Clotrimazole and Cyclosporin A,"[1]; FIG. 4, overlap with effects of opposite sign",anti-correlation
C=CC[C@@H]1/C=C(\C)C[C@H](C)C[C@H](OC)[C@H]2O[C@@](O)(C(=O)C(=O)N3CCCC[C@H]3C(=O)O[C@H](/C(C)=C/[C@@H]3CC[C@@H](O)[C@H](OC)C3)[C@H](C)[C@@H](O)CC1=O)[C@H](C)C[C@@H]2OC [FK506],concentration at which genes mediated by the primary target (calcineurin) reach saturation response,"[1]; FIG. 1, dose response of about 50 genes with the largest responses",about 1 μg/ml
same,correlation coefficient between the two drug response profiles,"[1]; FK506 (1.6 μg/ml) vs Cyclosporin A (30 μg/ml), genes with significant up and down regulations at the 95% confidence level, FIG. 3",0.86
C[C@H]1c2cccc(O)c2C(=O)C2=C(O)[C@]3(O)C(=O)C(C(N)=O)=C(O)[C@@H](N(C)C)[C@@H]3[C@@H](O)[C@@H]21 [doxycycline],effect on the growth rate,[2],no significant effect
